Data on two compounds can be found in article PMC11763590, “Fluorescence Polarization Immunoassay for Rapid, Sensitive Detection of the Herbicide 2,4-Dichlorophenoxyacetic Acid in Juice and Water Samples” (Biosensors, 2025).

In the experiment the target is monoclonal antibody against 2,4-D (MAb). Kind of experiment: fluorescence polarization titration of tracer with antibody. It is filed as binding. Background: In fluorescence polarisation assays a small probe gives low polarisation when free and higher when bound to something large.

The term Kd denotes a measure of binding affinity in units of concentration. The compound `O=C(COc1ccc(Cl)cc1Cl)NCCCCNC(=S)Nc1ccc(-c2c3ccc(=O)cc-3oc3cc(O)ccc23)c(C(=O)O)c1` [2,4-D-BDF, 2,4-D-buthylenediamin fluoresceinthiocarbamyl] returned a Kd of 3.2 ± 0.5 nM.

In turn, `O=C(COc1ccc(Cl)cc1Cl)NCC(=O)Nc1ccc(-c2c3ccc(=O)cc-3oc3cc(O)ccc23)c(C(=O)O)c1` [2,4-D-GAF, 2,4-D-glycine aminofluorescein] yielded a Kd of 3.7 ± 0.6 nM.
